Results taken from paper PMC10406726, “Development, scrutiny, and modulation of transient reporter gene assays of the xenobiotic metabolism pathway in zebrafish hepatocytes” (Cell Biology and Toxicology, 2021).
Where two headings read alike, the source gives them in different places.

Experiments:
Format in all cases: cell-based, zebrafish (Danio rerio)
[1] = test system: AhR (AhR/ARNT/XRE pathway); assay: AhR-responsive transient dual luciferase reporter gene (DLR) assay in ZFL cells; conditions: zebrafish; for IC50 / EC50: BNF exposure; for EC50 at 24 h: TCDD exposure, 4PL regression
Experimental: (§1) ZFL cells were seeded either into white, clear-bottom 96-well microtiter plates (Corning, New York, USA; for DLR assays) or transparent 96-well microtiter plates (Corning, New York, USA; for viability assays) at a density of 1.5 × 10^5 cells/mL, in 100 μL/well. After 24 h of incubation, cells reached a confluence of about 80%.
(§2) The transient transfection was conducted in a 2-μg transfection reagent to 1 μg plasmid DNA ratio, applying the XHP transfection reagent (Roche, Mannheim, Germany). Specific transfection optimization experiments were reported priory (Lungu-Mitea et al. [2018]). The transient transfection reaction was incubated as a co-transfection in a 10:1 reporter to control ratio (0.9 μg reporter plasmid, 0.1 μg control plasmid) for 30 min, before adding the reaction mixture to the cells. Firefly luciferase-bearing vectors were used as the primary reporter plasmids, and Renilla luciferase-bearing vectors were used for normalization (control plasmid). Ten microliter per well of the transfection reaction mix was added to the cells and incubated for 24 h. Following (Lungu-Mitea and Lundqvist [2020]), cells used in both DLR and viability assays were transiently transfected.
(§3) Prepared aliquots of stock solutions were thawed and further titrated using the nutrition medium supplemented with 5‰ (v/v) DMSO as a solvent. […] Different exposure regimes were applied. […] All potential co-transfection combinations were screened in this initial approach. […] Further, cells transfected with candidate plasmid combinations were subjected to a TCDD exposure regime from 100 pM to 100 nM (0.1, 0.3, 1, 3, 10, 30, 100 nM). Cells were exposed in 100 μL/well of the specifically spiked nutrition medium. Solvent controls (negative controls) were conducted in six replicates for every specific experiment.
(§4) After 24 h of exposure to AhR-agonists, cells on white 96-well microtiter plates were lysed in 20-μL passive lysis buffer (PLB; Promega, Madison, USA), and quantitative AhR-dependent luminescence was measured via Dual-Luciferase® Reporter Assay (DLR; Promega, Madison, USA), according to the manufacturer’s protocol using an auto-injecting Infinite M1000 microplate reader (Tecan, Männedorf, Switzerland), following a flash luminescence protocol. The luciferase activity was normalized to transfection efficiency (Firefly raw light unit readout divided by Renilla raw light unit readout) and further expressed as fold change compared to the non-treated controls.
(§5) In terms of the NOEC/LOEC analyses, for both approaches (DLR and viability), mean background values (blanks) were subtracted from the raw values, and the data was computed as fold induction in relation to the negative controls. Means of every experiment were pooled (experimental unit n = 3–5; observational unit N = 9–15). Normality was tested by Shapiro–Wilk and Kolmogorov–Smirnov tests (both significance level alpha = 0.05) and analyzed graphically via normal-qq-plot. Non-normal data were log-transformed and re-analyzed. Given normality, statistically differing significance in the output signal from the negative controls was assessed via one-way ANOVA, followed by Dunnett’s post hoc test (for multiple comparisons vs. control). Residuals were graphically analyzed by quantile–quantile plot (actual vs. predicted residuals), homoscedasticity plot (absolute residuals vs. fitted), and residual plot (residuals vs. fitted) to ensure ANOVA criteria were met. Further, Brown–Forsythe and Bartlett’s tests were conducted to check for the residuals’ homoscedasticity and normality. Beyond statistical significance, for all viability tests, a threshold of 80% as compared to the negative control (corresponding 0.8) was determined as biologically significant and marked with a dotted red line within all respective graphs. […]

[2] = test system: AhR transcription factor activation (AhR/ARNT/XRE pathway); assay: as above; conditions: for EC20 (normalized): 4PL regression
Experimental: as §1, §2, §3, §4, §5

[3] = test system: ZFL cells; assay: MTS/BCA-multiplex viability assay on transiently transfected ZFL cells
Experimental: In parallel to the DLR assays, MTS/BCA-multiplex assays were conducted on identically treated cells. The MTS/BCA-multiplex assay, which is described in detail in (Lungu-Mitea et al. [2021]), scores NADPH-turnover and total protein amount as apical endpoints of cell viability or cytotoxicity. After 24 h exposure, the spiked nutrition medium was discharged, cells were washed once in 100 µL/well PBS, and 100 µL/well Earle’s Balanced Salt Solution (EBSS; Gibco, Paisley, UK) was added. MTS-based CellTiter 96® AQueous One Solution Cell Proliferation Assay (Promega, Madison, USA) was conducted following the manufacturer’s protocol. Seventeen percent (v/v) MTS reagent were added to the wells. After 2 h of incubation at 28 °C and atmospherical CO2, formazan product turnover absorbance was measured at 490 nm using an Infinite M1000 microplate reader. Afterwards, EBSS and MTS reagents were removed. Cells were washed once in 100 µL/well PBS and lysed in 20-µL PLB at RT for 30 min. Bicinchoninic Acid Protein Assay (BCA, Sigma-Aldrich, St. Louis, USA) was conducted following the manufacturer’s protocol. One hundred eighty microliters of BCA-reagent was added to every well, plates were agitated shortly, and incubated for 20 min at 60 °C. After cooling down for 15 min at RT, absorbance was measured at 562 nm using an Infinite M1000 microplate reader.
In terms of the NOEC/LOEC analyses, for both approaches (DLR and viability), mean background values (blanks) were subtracted from the raw values, and the data was computed as fold induction in relation to the negative controls. Means of every experiment were pooled (experimental unit n = 3–5; observational unit N = 9–15). Normality was tested by Shapiro–Wilk and Kolmogorov–Smirnov tests (both significance level alpha = 0.05) and analyzed graphically via normal-qq-plot. Non-normal data were log-transformed and re-analyzed. Given normality, statistically differing significance in the output signal from the negative controls was assessed via one-way ANOVA, followed by Dunnett’s post hoc test (for multiple comparisons vs. control). Residuals were graphically analyzed by quantile–quantile plot (actual vs. predicted residuals), homoscedasticity plot (absolute residuals vs. fitted), and residual plot (residuals vs. fitted) to ensure ANOVA criteria were met. Further, Brown–Forsythe and Bartlett’s tests were conducted to check for the residuals’ homoscedasticity and normality. Beyond statistical significance, for all viability tests, a threshold of 80% as compared to the negative control (corresponding 0.8) was determined as biologically significant and marked with a dotted red line within all respective graphs.

O=c1cc(-c2ccccc2)oc2ccc3ccccc3c12 [BNF, β-naphthoflavone]
effect on AhR-related signal ([2]; 300 nM BNF, pGudluc7.5 with non-viral promoter normalization vectors (Fig. 1C + D)): statistically significant inhibition
maximum induction of AhR-related luminescence ([2]; BNF at 10 nM, pGL4.43 + pRL-null[zfEF1aPro] (Fig. S5)): 3.9 fold
LOEC ([2]; BNF exposure, pGL4.43 + pRL-null[zfEF1aPro] (Fig. S5)): 3 nM
EC50 ([2]; BNF exposure, setup (a) pGL4.43 + pGL4.70, bell-shaped regression, normalized induction): 2.95 nM
induction of AhR-related luciferase signal ([2]; BNF screening, co-transfection with pGudluc7.5 (Figs. 1C + D, 2, S4)): no overall statistically significant induction
induction of AhR-related luciferase response ([2]; BNF screening, pGL4.43 + pGL4.74, pGL4.43 + pRL-SV40, pGL4.43 + pGL4.73 (viral promoters)): 1.5- to threefold
statistically significant cytotoxicity ([3]; BNF 3-300 nM, pGL4.43 with any viral promoter-bearing vector (Fig. S3)): No statistically significant cytotoxicity
cytotoxicity by biological threshold (0.8) ([3]; BNF highest exposure concentration, pGL4.43 + pRL-SV40 and pRL-CMV, at least one endpoint (Fig. S3D + F)): depicted cytotoxicity by biological threshold definition
cytotoxicity (statistical or biological significance) ([3]; BNF highest exposure concentration, pGudluc7.5 + CMV and SV40-bearing vectors, at least one apical endpoint (Fig. S4C-F)): Cytotoxicity was recorded
statistically significant cytotoxicity (MTS and BCA endpoints) ([3]; BNF, entire concentration range up to 1 µM, non-viral promoter setups (Fig. 1)): no statistically significant cytotoxicity

Clc1cc2c(cc1Cl)Oc1cc(Cl)c(Cl)cc1O2 [TCDD, 2,3,7,8-tetrachlorodibenzo-p-dioxin]
EC50 at 24 h ([1]; setup (a) pGL4.43 + pGL4.70, read-out: EC50 (normalized)): 0.612 nM
EC50 at 24 h ([1]; setup (a) pGL4.43 + pGL4.70, read-out: EC50 (relative; non-normalized)): 0.595 nM
EC50 at 24 h ([1]; setup (b) pGL4.43 + pRL-null, read-out: EC50 (normalized)): 2.7 nM
EC50 at 24 h ([1]; setup (b) pGL4.43 + pRL-null, read-out: EC50 (relative; non-normalized)): 1.31 nM
EC50 at 24 h ([1]; setup (c) pGudLuc7.5 + pRL-null[zfEF1aPro], read-out: EC50 (normalized)): 1.15 nM
EC50 at 24 h ([1]; setup (c) pGudLuc7.5 + pRL-null[zfEF1aPro], read-out: EC50 (relative; non-normalized)): 1.13 nM
EC50 at 24 h ([1]; setup (d) pGL4.43 + pRL-null[zfEF1aPro], read-out: EC50 (normalized)): 1.45 nM
EC50 at 24 h ([1]; setup (d) pGL4.43 + pRL-null[zfEF1aPro], read-out: EC50 (relative; non-normalized)): 0.877 nM
EC50 at 24 h ([1]; setup (e) pGudLuc7.5 + pRL-null, read-out: EC50 (normalized)): 0.661 nM
EC50 at 24 h ([1]; setup (e) pGudLuc7.5 + pRL-null, read-out: EC50 (relative; non-normalized)): 0.685 nM
EC50 at 24 h ([1]; setup (f) pGudLuc7.5 + pGL4.70, read-out: EC50 (normalized)): 1.26 nM
EC50 at 24 h ([1]; setup (f) pGudLuc7.5 + pGL4.70, read-out: EC50 (relative; non-normalized)): 1.07 nM
LOEC ([2]; TCDD exposure 24 h, setup (d) pGL4.43 + pRL-null[zfEF1aPro]): 0.1 nM
LOEC ([2]; TCDD exposure 24 h, setup (e) pGudLuc7.5 + pRL-null): 1 nM
LOEC ([2]; TCDD exposure 24 h, setup (f) pGudLuc7.5 + pGL4.70): 1 nM
EC20, all co-transfection setups ([2]; TCDD exposure, all recorded within this range): ~0.2 nM
plateau of relative induction ([2]; TCDD exposure, pGudluc7.5 + pRL-null[zfEF1aPro] (Fig. 5A)): approximately 26 fold
EC20 (normalized) ([2]; TCDD exposure, setup (d) pGL4.43 + pRL-null[zfEF1aPro]): 0.282 nM
EC20 (normalized) ([2]; TCDD exposure, setup (e) pGudLuc7.5 + pRL-null): 0.245 nM
EC20 (normalized) ([2]; TCDD exposure, setup (f) pGudLuc7.5 + pGL4.70): 0.204 nM
cytotoxicity (MTS) ([3]; TCDD 0.1-100 nM, pGudluc7.5 + pRL-null[zfEF1aPro] (Fig. S7)): none
